The values that follow come from PubChem BioAssay (NCI).

Common to all, as to assay: NCI-60 cell line screen, 48 h
Assay [1] has as its system SR leukemia.
In assay [2] the test system is EKVX NSCLC.
Assay [3] relates to DU-145 prostate.
Assay [4] has as its system CCRF-CEM leukemia.
The test system of assay [5] is MDA-MB-231 breast.
Assay [6] deals with CAKI-1 renal.
Assay [7] deals with SN12C renal.
The test system of assay [8] is SK-MEL-5 melanoma.
The subject of assay [9] is SF-268 CNS.
Assay [10] concerns MDA-N.

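Following 48 hours of exposure in 96-well plates, responses at five concentrations were used to interpolate endpoints linearly. Here, GI50 denotes the concentration required for 50% inhibition of growth. The concentration for full growth arrest is given as TGI.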

Take `N#Cc1ccccc1C#C/C=C\C#Cc1ccccc1N`: the GI50 in [1] is 0.745 µM; in [2] it was 10 µM; in assay [3] it was 13.9 µM; in assay [4], 1.6 µM; in assay [5], 2.13 µM; in [6], 0.129 µM. In addition, the GI50 in assay [7] is 2.41 µM; in assay [8], 3.34 µM; in assay [9] it was 9.12 µM. Besides, the TGI is 2.52 µM in assay [1]; over 57.3 µM in assay [2]; over 100 µM in assay [3]; over 100 µM in assay [4]; 8.37 µM in assay [5]; 0.634 µM in [6]. The TGI in [7] was 12.5 µM; in assay [8] it was 19 µM; in assay [9] it was over 56.2 µM.
As to `CC1=CC(O)C(C(O)(C(F)(F)F)C(F)(F)F)C(C)(C)C1` (stereo not given), the TGI in assay [2], in assay [3], in assay [10], in [4], in [5] and in [6] was over 10 µM each time. The TGI in assay [7] is over 10 µM; in assay [8], 0.163 µM; in [9] it was over 10 µM.
Turning to `Cc1ccc2nc(-c3ccc(NC(=O)c4ccc(N)cc4)c(S(=O)(=O)O)c3)sc2c1`, the TGI in assay [2], in assay [3], in assay [10], in assay [4], in assay [5] and in [6] was over 100 µM throughout. The TGI in assay [7], in [8] and in assay [9] was over 100 µM in each case.
With `O=C(Cc1csc2nc(-c3ccc(Cl)cc3)cn12)N/N=C/c1ccccc1O`, the GI50 in assay [1] is 0.603 µM; in [2] it was 3.26 µM; in assay [3], 2.72 µM; in [4], 0.736 µM; in assay [5], 13.1 µM; in [6], 0.782 µM. Besides, the GI50 was 11 µM in assay [7], 2.93 µM in assay [8] and 1.26 µM in [9]. Further, the TGI was over 100 µM in [1]; over 100 µM in [2]; over 100 µM in assay [3]; over 100 µM in assay [4]; over 100 µM in assay [5]; 16 µM in assay [6]. Moreover, the TGI is over 100 µM in assay [7], over 100 µM in assay [8] and 54.8 µM in [9].
On to `Nc1nnc(CCC(=O)Nc2cc(Cl)ccc2Cl)n1N`, for which the TGI in assay [1], in [2], in assay [4], in assay [6], in [7] and in [8] was over 100 µM throughout. In addition, the TGI in [9] is over 100 µM.
As to `O=C(/C=C1\N=C(c2ccccc2)N(c2nc3c(Cl)cc(Cl)cc3s2)C1=O)/C=C/c1ccccc1`, the TGI in [2], in assay [3], in assay [10], in assay [4], in assay [5] and in assay [6] was over 100 µM in each case. Also, the TGI in [7], in [8] and in assay [9] was over 100 µM throughout.
Regarding `Cc1oc(N)c(S(=O)(=O)c2cc3ccccc3n(O)c2=N)c1C`, the TGI in assay [2], in [3], in assay [10], in assay [5], in assay [6] and in assay [7] was over 100 µM each time. Moreover, the TGI in assay [8] and in [9] was over 100 µM in each case.
For `CC1(C(=O)O)C[C@](C)(C(=O)OCc2ccccc2)C[C@](C)(C(=O)OCc2ccccc2)C1` (stereo not given in full), the TGI was 83.7 µM in assay [1]; 75.7 µM in assay [2]; over 100 µM in assay [3]; over 100 µM in assay [10]; over 100 µM in assay [4]; 71.2 µM in assay [6]. Besides, the TGI in [7], in assay [8] and in [9] was over 100 µM each time.
Turning to `Clc1ccc(Nc2nc(Nc3ccccc3)nc(Nc3ccc(-c4cc(-c5ccc(Cl)cc5)on4)cc3)n2)cc1`, the GI50 in assay [1] is 26 µM; in assay [2], 3.14 µM; in assay [3] it was 20.4 µM; in assay [4], 11.8 µM; in [5] it was 10.5 µM; in assay [6] it was 15.3 µM. The GI50 in assay [7] is 24.8 µM; in assay [8], 24 µM; in assay [9] it was 43.4 µM. The TGI was over 100 µM in assay [1]; 88.4 µM in assay [2]; 80.3 µM in [3]; over 100 µM in assay [4]; 66.3 µM in assay [5]; 69.2 µM in assay [6]. The TGI in assay [7], in assay [8] and in assay [9] was over 100 µM throughout.
With `Cn1c2[n+](c3nc(N)[nH]c(=O)c31)C1OC(C2)C(O)C1O` (stereo not given), the TGI in [1], in [2], in assay [4], in assay [6], in assay [7] and in [8] was over 100 µM throughout. The TGI in assay [9] is over 100 µM.
Turning to `O=C(Nc1ccc(-n2ccc3c(NC(=O)c4ccccc4)nccc32)cc1)Nc1cccc(C(F)(F)F)c1`, the GI50 was 1.49 µM in assay [1]; 5.73 µM in assay [2]; 4.2 µM in assay [3]; 1.27 µM in assay [4]; 4.65 µM in [5]; 10.8 µM in assay [6]. Besides, the GI50 in assay [7] was 13.4 µM; in assay [8], 7.2 µM; in assay [9] it was 10.5 µM. The TGI turned out to be 4.28 µM in [1]; 22.1 µM in assay [2]; 14.8 µM in assay [3]; 5.55 µM in assay [4]; 18.1 µM in [5]; 37.4 µM in assay [6]. The figures for the TGI in assay [7], in assay [8] and in [9] were 27 µM, 20.7 µM and 30.2 µM, respectively.
